# Paper PMC8621857, “Structural Insights into the Azole Resistance of the Candida albicans Darlington Strain Using Saccharomyces cerevisiae Lanosterol 14α-Demethylase as a Surrogate” (Journal of Fungi, 2021)
# Like-named read-outs stand apart in the source and are kept apart here. Starred links: 1 amine or outer side, 2 acyl side, 3 side chain; linkers in the order of their positions; H or OH if unused. Positions of bridges follow the written chain, without caps; N, C: chain ends. Non-standard residues stand in square brackets, D forms with d. Residues, ends and D or L forms follow the SMILES beside them. *: point of attachment. hTyr(3S-OH,4S-OH,3'-OSO3H) = N[C@H](C(=O)O)[C@H](O)[C@@H](O)c1ccc(O)c(OS(=O)(=O)O)c1; Orn(4R-OH,5R-OH) = O=C([C@H](C[C@@H](O)[C@@H](O)N[*:3])N[*:1])[*:2]; Pro(3S-OH,4S-Me) = C[C@H]1CN[C@H](C(=O)O)[C@H]1O; X1 = CCCCCOc1ccc(-c2cc(-c3ccc(C(=O)*)cc3)no2)cc1; Gln(3R-OH) = NC(=O)C[C@@H](O)[C@H](N)C(=O)O; Hyp = O=C(O)[C@@H]1C[C@@H](O)CN1
# What was measured:
# [1] = test system: S. cerevisiae strain AD2Δ (native wild-type ScLDM); experiment: Broth microdilution drug susceptibility assay (MIC80), host strain AD2Δ; type: cell-based; conditions: Saccharomyces cerevisiae, 48 h, pH 6.8
# Procedure: Yeast strains used in this study (Supplementary Table S1) were prepared using the AD2Δ strain of S. cerevisiae as a host, using an established protocol. AD2Δ is hypersensitive to xenobiotics due to the deletion of seven major ABC transporters, including those responsible for the efflux of azole drugs. It is also deleted of the PDR3 transcriptional regulator, but contains the gain-of-function Pdr1-3 transcriptional regulator mutation that leads to constitutive overexpression from the PDR5 locus.
# (§1) Azole susceptibility was measured as the mean drug concentration required to inhibit 80% of yeast growth (MIC80) compared to a non-drug control, using a standard broth microdilution assay. Serial dilutions of short- (FLC and VCZ), medium- (VT-1161), and long-tailed (ITC and PCZ) azole drugs, and the control drugs micafungin (MCF) and amphotericin B (AMB), were prepared in a 96-well microtiter plate in complete synthetic media lacking uracil, buffered to pH 6.8 [34]. Control and test cells were seeded at an optical density of 600 nm (OD600) of 0.005 (~1.5 × 10^4 colony forming units). After incubation for 48 h at 30 °C with constant agitation (200 rpm), the OD600 nm of each well was measured using a Synergy 2 multi-mode plate reader (BioTek Instruments, Winooski, VT, USA). The experiment was repeated three times (a total of nine measurements for the response of each strain to each drug). GraphPad Prism 5.0 software was used for statistical analysis, using a one-way analysis of variance with a Bonferroni post-hoc test. The statistical significance of comparisons was accepted when p < 0.05.
# [2] = test system: S. cerevisiae strain AD3Δ ScErg11 (AD3Δ) overexpressing wild-type ScLDM6×His; experiment: Broth microdilution drug susceptibility assay (MIC80), strain AD3Δ ScErg11; type: cell-based, Saccharomyces cerevisiae; conditions: for MIC80: Saccharomyces cerevisiae, 48 h, pH 6.8
# Procedure: (§2) The native ScERG11 gene in yeast cells containing mutant ScERG11-6×His constructs in the PDR5 locus was disrupted by homologous recombination with a cassette encoding the His1 selection marker and sequences homologous with the regions bordering the endogenous ScERG11 ORF to create strains AD3Δ ScErg11 Y140H, AD3Δ ScErg11 I471T and AD3Δ ScErg11Y140H I471T [43]. Transformants were selected on SD-His agar plates incubated at 30 °C for 48–72 h. Genomic DNA was extracted, and DNA sequencing as above was used to confirm deletion of the native ERG11. Strain AD3Δ ScErg11 (denoted as AD3Δ), which overexpresses wild-type ScLDM6×His from the PDR5 locus and has the native ScERG11 gene disrupted, was used as a control strain [43].
# as §1
# [3] = test system: S. cerevisiae strain AD3Δ ScErg11 Y140H expressing ScLDM6×His Y140H; experiment: Broth microdilution drug susceptibility assay (MIC80), strain AD3Δ ScErg11 Y140H; type: cell-based, Saccharomyces cerevisiae; conditions: for MIC80: Saccharomyces cerevisiae, 48 h, 30 °C, pH 6.8, mean (± SEM), n = 3
# Procedure: as §2, §1
# [4] = test system: S. cerevisiae strain AD3Δ ScErg11 I471T expressing ScLDM6×His I471T; experiment: Broth microdilution drug susceptibility assay (MIC80), strain AD3Δ ScErg11 I471T; type: cell-based, Saccharomyces cerevisiae; conditions: for MIC80: Saccharomyces cerevisiae, 48 h, 30 °C, pH 6.8, mean (± SEM), n = 3; for increased susceptibility compared with AD3Δ: strain AD3Δ ScErg11 I471T, not corrected for expression
# Procedure: as §2, §1
# [5] = test system: S. cerevisiae strain AD3Δ ScErg11 Y140H I471T expressing ScLDM6×His Y140H I471T; experiment: Broth microdilution drug susceptibility assay (MIC80), strain AD3Δ ScErg11 Y140H I471T; type: cell-based, Saccharomyces cerevisiae
# Procedure: as §2, §1
# [6] = test system: C. albicans strain SC5314; experiment: Agarose disk diffusion assay, control strain SC5314; type: cell-based, Candida albicans
# Procedure: (§3) Agarose diffusion assays were carried out as described previously using the Darlington strain of C. albicans (Pfizer Ltd., Sandwich, UK) and the control C. albicans database strain SC5314, which is not resistant to azoles. The Cdr1p-specific inhibitor RC21v3 and the CaMdr1p-specific inhibitor MCC1189 (MicroCombiChem, Wiesbaden, Germany), included in the assay medium at 6 µM, were used to investigate the contribution of efflux pumps to azole resistance in the Darlington strain [49, 50, 51].
# [7] = test system: C. albicans Darlington strain; experiment: Agarose disk diffusion assay, Darlington strain; type: cell-based, Candida albicans
# Procedure: as §3
# [8] = molecular target: wild-type and Y140F/H mutants of ScLDM6×His; design: method as in earlier work; conditions: no significant differences, ref 5 (supplement; Sagatova et al. 2016); cited from earlier work
# [9] = test system: S. cerevisiae test and control strains (AD2Δ, AD3Δ and mutants); experiment: Broth microdilution MIC80, comparison across the various cell types tested; type: cell-based, Saccharomyces cerevisiae; conditions: p > 0.05
# Procedure: as §1
# [10] = test system: Phakopspora pachyrhizi SDM Y131F I475T isolates; design: method as in PMID 23589453; conditions: isolates from soybean plants in Brazil; cited from earlier work
# [11] = strain Y140H, relative expression 0.74
# [12] = strain I471T, relative expression 0.51
# [13] = Saccharomyces cerevisiae, strain Y140H + I471T, 48 h, 30 °C, pH 6.8, mean (± SEM), n = 3
# [14] = strain Y140H+I471T, relative expression 0.41
structure (smiles),measurement,setting,value
"OC(Cn1cncn1)(Cn1cncn1)c1ccc(F)cc1F [FLC, fluconazole]",MIC80,[1],1.33 µM
same,MIC80/Relative Amount of ScLDM6×His,[2],3.64 µM
same,MIC80,[2],3.64 µM
same,MIC80,[3]; strain Y140H,7.4 µM
same,"resistance conferred, relative amount of recombinant ScLDM6×His taken into account",[3]; ScLDM6×His Y140H vs AD3Δ,2.8 fold
same,MIC80 higher than strain AD3Δ ScErg11,"[3]; strain AD3Δ ScErg11 Y140H vs AD3Δ, not corrected for expression, p < 0.001",~ 2 fold
same,MIC80/Relative Amount of ScLDM6×His,[3]; [11],10 µM
same,fold-resistance based on the relative amount of recombinant enzyme compared with strain AD3Δ,[3]; [11],2.8 ×
same,MIC80,[4]; strain I471T,1.88 µM
same,increased susceptibility compared with AD3Δ,[4],1.9 fold
same,MIC80/Relative Amount of ScLDM6×His,[4]; [12],3.69 µM
same,fold-resistance based on the relative amount of recombinant enzyme compared with strain AD3Δ,[4]; [12],1.0 ×
same,MIC80,[5]; [13],11.5 µM
same,MIC80 higher than AD3Δ ScErg11 cells,"[5]; strain AD3Δ ScErg11 Y140H I471T, not corrected for expression, p < 0.001",approximately 3 fold
same,MIC80 higher than cells overexpressing ScLDM6×His Y140H,"[5]; strain AD3Δ ScErg11 Y140H I471T, p < 0.001",1.5 fold
same,MIC80/Relative Amount of ScLDM6×His,[5]; [14],28.0 µM
same,fold-resistance based on the relative amount of recombinant enzyme compared with strain AD3Δ,[5]; [14],7.7 ×
same,effect of Cdr1p inhibitor RC21v3 on azole susceptibility,[6],did not alter the susceptibility
same,effect of Mdr1 inhibitor MCC1189 on azole susceptibility,[6],did not alter the susceptibility
same,agarose diffusion susceptibility,"[6]; SC5314, no efflux pump inhibitor",susceptible
same,effect of Mdr1 inhibitor MCC1189 on azole susceptibility,[7]; MCC1189 at 6 µM in the assay medium,did not alter the susceptibility
same,effect of Cdr1p inhibitor RC21v3 on azole susceptibility,[7]; RC21v3 at 6 µM in the assay medium,did not alter the susceptibility
same,agarose diffusion susceptibility,[7]; no efflux pump inhibitor,resistant
same,Kd,[8],~500 nM
"CCCCCOc1ccc(-c2cc(-c3ccc(C(=O)N[C@H]4C[C@@H](O)[C@@H](O)NC(=O)[C@@H]5[C@@H](O)[C@@H](C)CN5C(=O)[C@H]([C@H](O)CC(N)=O)NC(=O)[C@H]([C@H](O)[C@@H](O)c5ccc(O)c(OS(=O)(=O)O)c5)NC(=O)[C@@H]5C[C@@H](O)CN5C(=O)[C@H]([C@@H](C)O)NC4=O)cc3)no2)cc1 [MCF, micafungin] (X1-[Orn(4R-OH,5R-OH)]T[Hyp][hTyr(3S-OH,4S-OH,3'-OSO3H)][Gln(3R-OH)][Pro(3S-OH,4S-Me)]; lactam 1-C)",MIC80,"[1]; strain AD2Δ, 30 °C, mean (± SEM), n = 3, read-out: MIC80",0.174 µM
same,MIC80,"[2]; strain AD3Δ, 30 °C, mean (± SEM), n = 3, read-out: MIC80",0.146 µM
same,effect of ScLDM6×His overexpression on susceptibility to control antifungals,[2]; strain AD3Δ vs AD2Δ,did not modify susceptibility
same,MIC80,[3]; strain Y140H,0.166 µM
same,MIC80,[4]; strain I471T,0.164 µM
same,increased susceptibility compared with AD3Δ,[4],not
same,MIC,[5]; [13],0.162 µM
same,differences between MIC80s for the various cell types tested,[9],no statistically significant differences
CC(C1CC1)C(O)(Cn1cncn1)c1ccc(Cl)cc1 (stereo not shown) [cyproconazole],resistance conferred by the double mutation Y131F I475T,[10],~ 100 fold
CC1(C)CCC(Cc2ccc(Cl)cc2)C1(O)Cn1cncn1 (stereo not shown) [metconazole],resistance conferred by the double mutation Y131F I475T,[10],~ 100 fold
